Laboratory results as given in patent US20080145313A1, “Compositions and Methods for the Treatment and Prevention of Neoplastic Disorders” (Genesis Research & Development Corporation Limited, priority 2006, published 2008).

Tested on: target transcript mRNA in A549 cells
Assay: Level of mRNA of target transcript in A549 cells by quantitative RT-PCR (Tables 12 and 13)
Assay type: cell-based, human
Conditions: 24 h post-transfection; for mRNA knockdown of energy and metabolism gene target transcript, 0.1 nM: 0.1 nM siRNA; for mRNA knockdown of energy and metabolism gene target transcript, 1 nM: 1 nM siRNA; for mRNA knockdown of energy and metabolism gene target transcript, 10 nM: 10 nM siRNA
Procedure: A549 cells were transfected as described before with 0.1, 1.0 and 10 nM siRNA as listed in Tables 10 and 11 and the relative mRNA levels quantified 24 h post-transfection. RNA was purified from cells using Trizol® extraction as per the manufacturer's protocol (Invitrogen). cDNA was prepared by digesting approximately 200 ng purified RNA with DNAse I (Invitrogen) for 15 minutes at room temperature, followed by 15 minutes at 65° C. in the presence of 25 mM EDTA. 30 ng random primers were added and incubated for 10 minutes at 65° C., 1 minute on ice; Superscript® III polymerase (Invitrogen) was added in presence of 5 nM DTT (Invitrogen) and 1 mM deoxyribonucleotides (Invitrogen), and the reaction incubated at 25° C. for 5 minutes, followed by an hour at 50° C. cDNA was diluted 1:3 in 10 mM Tris pH 7.0, and quantitative RT-PCR carried out on an ABI Prism 7900HT (Applied Biosciences, Inc., Foster City, Calif.) using FastStart TaqMan SYBRGreen (Roche, Basel, Switzerland) or Platinum SYBR Green (Invitrogen) and 360 nM of the primers specific for gene targets and housekeeping genes HPRT and Lamin. Reduction in target mRNA levels following siRNA transfection are given in Tables 12 and 13, together with the gene specific primer sequences. Primer sequences used for the housekeeping genes HPRT and Lamin are given in SEQ ID NO: 4885-4888.

1686 (AACAGGATCTTCGGCCCCATCTG; chemistry not given here) [compound 1686]
mRNA knockdown of energy and metabolism gene target transcript, 0.1 nM: − (<50% mRNA knockdown)
mRNA knockdown of energy and metabolism gene target transcript, 1 nM: − (<50% mRNA knockdown)

1687 (CAACAGGATCTTCGGCCCCATCTG; chemistry not given here) [compound 1687]
mRNA knockdown of energy and metabolism gene target transcript, 0.1 nM: − (<50% mRNA knockdown)
mRNA knockdown of energy and metabolism gene target transcript, 1 nM: − (<50% mRNA knockdown)

1688 (CCAACAGGATCTTCGGCCCCATCTG; chemistry not given here) [compound 1688]
mRNA knockdown of energy and metabolism gene target transcript, 0.1 nM: + (50-70% mRNA knockdown)
mRNA knockdown of energy and metabolism gene target transcript, 1 nM: ++ (70-90% mRNA knockdown)

1689 (GCCAACAGGATCTTCGGCCCCATCTG; chemistry not given here) [compound 1689]
mRNA knockdown of energy and metabolism gene target transcript, 0.1 nM: − (<50% mRNA knockdown)
mRNA knockdown of energy and metabolism gene target transcript, 1 nM: ++ (70-90% mRNA knockdown)

1690 (TGCCAACAGGATCTTCGGCCCCATCTG; chemistry not given here) [compound 1690]
mRNA knockdown of energy and metabolism gene target transcript, 0.1 nM: ++ (70-90% mRNA knockdown)
mRNA knockdown of energy and metabolism gene target transcript, 1 nM: ++ (70-90% mRNA knockdown)

1691 (TTGCCAACAGGATCTTCGGCCCCATCTG; chemistry not given here) [compound 1691]
mRNA knockdown of energy and metabolism gene target transcript, 0.1 nM: − (<50% mRNA knockdown)
mRNA knockdown of energy and metabolism gene target transcript, 1 nM: ++ (70-90% mRNA knockdown)

1692 (TTTGCCAACAGGATCTTCGGCCCCATCTG; chemistry not given here) [compound 1692]
mRNA knockdown of energy and metabolism gene target transcript, 0.1 nM: − (<50% mRNA knockdown)
mRNA knockdown of energy and metabolism gene target transcript, 1 nM: − (<50% mRNA knockdown)

1693 (ATTTGCCAACAGGATCTTCGGCCCCATCTG; chemistry not given here) [compound 1693]
mRNA knockdown of energy and metabolism gene target transcript, 0.1 nM: − (<50% mRNA knockdown)
mRNA knockdown of energy and metabolism gene target transcript, 1 nM: − (<50% mRNA knockdown)

1694 (CGTGAAGCTCCCTGACGCCTA; chemistry not given here) [compound 1694]
mRNA knockdown of energy and metabolism gene target transcript, 0.1 nM: − (<50% mRNA knockdown)
mRNA knockdown of energy and metabolism gene target transcript, 1 nM: − (<50% mRNA knockdown)

1695 (ACGTGAAGCTCCCTGACGCCTA; chemistry not given here) [compound 1695]
mRNA knockdown of energy and metabolism gene target transcript, 0.1 nM: ++ (70-90% mRNA knockdown)
mRNA knockdown of energy and metabolism gene target transcript, 1 nM: ++ (70-90% mRNA knockdown)

1696 (AACGTGAAGCTCCCTGACGCCTA; chemistry not given here) [compound 1696]
mRNA knockdown of energy and metabolism gene target transcript, 0.1 nM: − (<50% mRNA knockdown)
mRNA knockdown of energy and metabolism gene target transcript, 1 nM: − (<50% mRNA knockdown)

1697 (GAACGTGAAGCTCCCTGACGCCTA; chemistry not given here) [compound 1697]
mRNA knockdown of energy and metabolism gene target transcript, 0.1 nM: ++ (70-90% mRNA knockdown)
mRNA knockdown of energy and metabolism gene target transcript, 1 nM: + (50-70% mRNA knockdown)

1698 (AGAACGTGAAGCTCCCTGACGCCTA; chemistry not given here) [compound 1698]
mRNA knockdown of energy and metabolism gene target transcript, 0.1 nM: + (50-70% mRNA knockdown)
mRNA knockdown of energy and metabolism gene target transcript, 1 nM: + (50-70% mRNA knockdown)

1699 (AAGAACGTGAAGCTCCCTGACGCCTA; chemistry not given here) [compound 1699]
mRNA knockdown of energy and metabolism gene target transcript, 0.1 nM: − (<50% mRNA knockdown)
mRNA knockdown of energy and metabolism gene target transcript, 1 nM: ++ (70-90% mRNA knockdown)

1700 (CAAGAACGTGAAGCTCCCTGACGCCTA; chemistry not given here) [compound 1700]
mRNA knockdown of energy and metabolism gene target transcript, 0.1 nM: + (50-70% mRNA knockdown)
mRNA knockdown of energy and metabolism gene target transcript, 1 nM: ++ (70-90% mRNA knockdown)

3533 (AGATTGGAAGCCACCACATCAGTCTCAACA; chemistry not given here) [compound 3533]
mRNA knockdown of energy and metabolism gene target transcript, 0.1 nM: − (<50% mRNA knockdown)
mRNA knockdown of energy and metabolism gene target transcript, 1 nM: ++ (70-90% mRNA knockdown)

3534 (GGGTAGGAGCCCTACACTAGG; chemistry not given here) [compound 3534]
mRNA knockdown of energy and metabolism gene target transcript, 0.1 nM: ++ (70-90% mRNA knockdown)
mRNA knockdown of energy and metabolism gene target transcript, 1 nM: ++ (70-90% mRNA knockdown)

3535 (AGGGTAGGAGCCCTACACTAGG; chemistry not given here) [compound 3535]
mRNA knockdown of energy and metabolism gene target transcript, 0.1 nM: ++ (70-90% mRNA knockdown)
mRNA knockdown of energy and metabolism gene target transcript, 1 nM: +++ (>90% mRNA knockdown)

3536 (AAGGGTAGGAGCCCTACACTAGG; chemistry not given here) [compound 3536]
mRNA knockdown of energy and metabolism gene target transcript, 0.1 nM: ++ (70-90% mRNA knockdown)
mRNA knockdown of energy and metabolism gene target transcript, 1 nM: +++ (>90% mRNA knockdown)
mRNA knockdown of energy and metabolism gene target transcript, 10 nM: +++ (>90% mRNA knockdown)

3537 (CAAGGGTAGGAGCCCTACACTAGG; chemistry not given here) [compound 3537]
mRNA knockdown of energy and metabolism gene target transcript, 0.1 nM: ++ (70-90% mRNA knockdown)
mRNA knockdown of energy and metabolism gene target transcript, 1 nM: +++ (>90% mRNA knockdown)
mRNA knockdown of energy and metabolism gene target transcript, 10 nM: +++ (>90% mRNA knockdown)

3538 (CCAAGGGTAGGAGCCCTACACTAGG; chemistry not given here) [compound 3538]
mRNA knockdown of energy and metabolism gene target transcript, 0.1 nM: ++ (70-90% mRNA knockdown)
mRNA knockdown of energy and metabolism gene target transcript, 1 nM: ++ (70-90% mRNA knockdown)
mRNA knockdown of energy and metabolism gene target transcript, 10 nM: +++ (>90% mRNA knockdown)

3539 (GCCAAGGGTAGGAGCCCTACACTAGG; chemistry not given here) [compound 3539]
mRNA knockdown of energy and metabolism gene target transcript, 0.1 nM: − (<50% mRNA knockdown)
mRNA knockdown of energy and metabolism gene target transcript, 1 nM: − (<50% mRNA knockdown)
mRNA knockdown of energy and metabolism gene target transcript, 10 nM: − (<50% mRNA knockdown)

3540 (AGCCAAGGGTAGGAGCCCTACACTAGG; chemistry not given here) [compound 3540]
mRNA knockdown of energy and metabolism gene target transcript, 0.1 nM: − (<50% mRNA knockdown)
mRNA knockdown of energy and metabolism gene target transcript, 1 nM: − (<50% mRNA knockdown)
mRNA knockdown of energy and metabolism gene target transcript, 10 nM: − (<50% mRNA knockdown)

3541 (GAGCCAAGGGTAGGAGCCCTACACTAGG; chemistry not given here) [compound 3541]
mRNA knockdown of energy and metabolism gene target transcript, 0.1 nM: − (<50% mRNA knockdown)
mRNA knockdown of energy and metabolism gene target transcript, 1 nM: − (<50% mRNA knockdown)
mRNA knockdown of energy and metabolism gene target transcript, 10 nM: − (<50% mRNA knockdown)

3542 (GGAGCCAAGGGTAGGAGCCCTACACTAGG; chemistry not given here) [compound 3542]
mRNA knockdown of energy and metabolism gene target transcript, 0.1 nM: + (50-70% mRNA knockdown)
mRNA knockdown of energy and metabolism gene target transcript, 1 nM: ++ (70-90% mRNA knockdown)

3543 (TGGAGCCAAGGGTAGGAGCCCTACACTAGG; chemistry not given here) [compound 3543]
mRNA knockdown of energy and metabolism gene target transcript, 0.1 nM: ++ (70-90% mRNA knockdown)
mRNA knockdown of energy and metabolism gene target transcript, 1 nM: ++ (70-90% mRNA knockdown)

3544 (CTACCGCGAGCTGCGCTGGTT; chemistry not given here) [compound 3544]
mRNA knockdown of energy and metabolism gene target transcript, 0.1 nM: ++ (70-90% mRNA knockdown)
mRNA knockdown of energy and metabolism gene target transcript, 1 nM: ++ (70-90% mRNA knockdown)

3545 (ACTACCGCGAGCTGCGCTGGTT; chemistry not given here) [compound 3545]
mRNA knockdown of energy and metabolism gene target transcript, 0.1 nM: ++ (70-90% mRNA knockdown)
mRNA knockdown of energy and metabolism gene target transcript, 1 nM: ++ (70-90% mRNA knockdown)
mRNA knockdown of energy and metabolism gene target transcript, 10 nM: +++ (>90% mRNA knockdown)

3546 (AACTACCGCGAGCTGCGCTGGTT; chemistry not given here) [compound 3546]
mRNA knockdown of energy and metabolism gene target transcript, 0.1 nM: + (50-70% mRNA knockdown)
mRNA knockdown of energy and metabolism gene target transcript, 1 nM: ++ (70-90% mRNA knockdown)
mRNA knockdown of energy and metabolism gene target transcript, 10 nM: +++ (>90% mRNA knockdown)

3547 (CAACTACCGCGAGCTGCGCTGGTT; chemistry not given here) [compound 3547]
mRNA knockdown of energy and metabolism gene target transcript, 0.1 nM: ++ (70-90% mRNA knockdown)
mRNA knockdown of energy and metabolism gene target transcript, 1 nM: ++ (70-90% mRNA knockdown)
mRNA knockdown of energy and metabolism gene target transcript, 10 nM: +++ (>90% mRNA knockdown)

3548 (GCAACTACCGCGAGCTGCGCTGGTT; chemistry not given here) [compound 3548]
mRNA knockdown of energy and metabolism gene target transcript, 0.1 nM: ++ (70-90% mRNA knockdown)
mRNA knockdown of energy and metabolism gene target transcript, 1 nM: ++ (70-90% mRNA knockdown)
mRNA knockdown of energy and metabolism gene target transcript, 10 nM: +++ (>90% mRNA knockdown)

3549 (GGCAACTACCGCGAGCTGCGCTGGTT; chemistry not given here) [compound 3549]
mRNA knockdown of energy and metabolism gene target transcript, 0.1 nM: + (50-70% mRNA knockdown)
mRNA knockdown of energy and metabolism gene target transcript, 1 nM: +++ (>90% mRNA knockdown)
mRNA knockdown of energy and metabolism gene target transcript, 10 nM: ++ (70-90% mRNA knockdown)
